The target in one test is T1, PM-associated CFTR (Homo sapiens, UniProt P13569).
T1 construct: Immunoprecipitations of endogenous proteins were performed on 500 μg of lysates from Caco-2 cells; host or cells: Caco-2, T84
Description: CFTR plasma membrane disposal in Caco-2 cells (membrane fractions). It counts as cell-based. How it is done: (§1) Human colon adenocarcinoma-derived Caco-2 and T84 cells were obtained from the ATCC. Cells were maintained in T25 flask in Modified Eagle Medium (MEM) for Caco-2, or Ham's F12+DMEM (1:1) for T84, supplemented with 10% fetal bovine serum (FBS), 2 mM Glutamine+1% Non Essential Amino Acids (NEAA) and the antibiotics penicillin\streptomycin (100 units/ml) (all reagents from Lonza) (Luciani, A., et al. 2010. Cells were grown in Transwells (Corning, 3470 or 3460) under the normal condition (Luciani, A., et al. 2012). Briefly, 8×10^4 or 5×10^5 cells were seeded in 6.5-mm diameter or 12-mm diameter, respectively, and grown until the RT reached 800 to 1,200 Ω·cm2. Transwells with a pore size of 0.4 μm were used. Medium in both the apical and basolateral chambers was changed every other day. Cells were treated with 20 μg/ml of either α-gliadin peptide P31-43 or […] or scrambled PGAV or modified P31-43 either biotin-tagged or not, for different time point (from 1 h short challenge up to 24 h). Cells were also treated with 50 or 100 μg/ml of P57-68 or PGAV peptides for 3 h. Caco-2 or T84 cells were also treated with: CFTR potentiators VX-770 (10 μM) or VX-532 (20 μM) (Selleck chemicals) or Genistein (10 μM) (Sigma-Aldrich) or in presence or absence of CFTR inhibitor172 (CFTRinh172, 20 μM) or 3-methyl-adenine (3-MA, 20 μM) (Calbiochem), Z-DON (20 nM, Zedira) or BAPTA-AM (10 μM, Calbiochem).
(§2) The whole lysate or membrane fraction proteins of cell lines and mice intestine homogenates were obtained from treated and untreated cells or mice as described. The equal amount of protein were resolved by SDS-PAGE gel and blotted with antibodies against: SQSTM1, (Sigma Aldrich, 108k4767) 1:1000, PPARγ (Santa Cruz Biotechnology, sc7273) 1:500, BECN1 (Abcam, ab58878) 1:1000, CFTR clone M3A7 (Abcam, ab4067) 1:500, phospho-ERK1/2 (php42/44, Cell Signaling Technology, #91101) 1:1000, UVRAG (Santa Cruz Biotechnology sc8215) 1:1000, NHERF-1 (BD, 611161) 1:1000, EZRIN (BD, 610603) 1:1000, hVps34 (SigmaV9764) 1:300, biotin (Abcam, ab1227) 1:2000, PKAr2a (BD, 610625) 1:500, Ubiquitin (Cell Signaling clone P4D1, #3936) 1:1000, CHIP (Calbiochem PC711) 1:500, Caspase-1 p10 (M-20) (Santa Cruz Biotechnology, sc-514) 1:200, NLRP3 (Abcam, ab4207), 1:500, IDO1 (monoclonal; cv152) 1:1000^[80], used as primary antibodies. Normalization was performed by probing the membrane with anti-β-actin (Cell Signaling, #4970) 1:1000, anti-Gapdh (Sigma-Aldrich, G8795) 1:1000 and anti-flottilin (Abcam ab15148) 1:1000 antibodies. Immunoprecipitations of endogenous proteins were performed on 500 μg of lysates from Caco-2 cells. The proteins were incubated for 12-18 h at 4° C. with 10 ug\ml of specific antibody followed by the addition of Protein A/G-agarose beads for 4 h at 4° C. The beads were then washed three times with lysis buffer and Laemmli's sample buffer was added to the samples. The membranes were then blotted with: CFTR clone CF3 (Abcam, ab2784) 1:1000, TG2 (clone CUB7402; NeoMarkers) 1:1000, CHIP (Calbiochem PC711) 1:500, Ubiquitin (Cell Signaling clone P4D1 3936), isopeptide (Abcam 422) 1:1000, PKAR2 (BD 610625) 1:500.
Protein from membrane fractionation were obtained as described. Cells were homogenized with a PotterElvehjem pestle and centrifuged at 2300×g for 15 min at 4° C. […]

The target in another test is T2, CFTR (Homo sapiens, UniProt P13569).
T2 construct: Immunoprecipitations of endogenous proteins were performed on 500 μg of lysates from Caco-2 cells; host or cells: Caco-2, T84
T2 sequence (P13569 whole entry): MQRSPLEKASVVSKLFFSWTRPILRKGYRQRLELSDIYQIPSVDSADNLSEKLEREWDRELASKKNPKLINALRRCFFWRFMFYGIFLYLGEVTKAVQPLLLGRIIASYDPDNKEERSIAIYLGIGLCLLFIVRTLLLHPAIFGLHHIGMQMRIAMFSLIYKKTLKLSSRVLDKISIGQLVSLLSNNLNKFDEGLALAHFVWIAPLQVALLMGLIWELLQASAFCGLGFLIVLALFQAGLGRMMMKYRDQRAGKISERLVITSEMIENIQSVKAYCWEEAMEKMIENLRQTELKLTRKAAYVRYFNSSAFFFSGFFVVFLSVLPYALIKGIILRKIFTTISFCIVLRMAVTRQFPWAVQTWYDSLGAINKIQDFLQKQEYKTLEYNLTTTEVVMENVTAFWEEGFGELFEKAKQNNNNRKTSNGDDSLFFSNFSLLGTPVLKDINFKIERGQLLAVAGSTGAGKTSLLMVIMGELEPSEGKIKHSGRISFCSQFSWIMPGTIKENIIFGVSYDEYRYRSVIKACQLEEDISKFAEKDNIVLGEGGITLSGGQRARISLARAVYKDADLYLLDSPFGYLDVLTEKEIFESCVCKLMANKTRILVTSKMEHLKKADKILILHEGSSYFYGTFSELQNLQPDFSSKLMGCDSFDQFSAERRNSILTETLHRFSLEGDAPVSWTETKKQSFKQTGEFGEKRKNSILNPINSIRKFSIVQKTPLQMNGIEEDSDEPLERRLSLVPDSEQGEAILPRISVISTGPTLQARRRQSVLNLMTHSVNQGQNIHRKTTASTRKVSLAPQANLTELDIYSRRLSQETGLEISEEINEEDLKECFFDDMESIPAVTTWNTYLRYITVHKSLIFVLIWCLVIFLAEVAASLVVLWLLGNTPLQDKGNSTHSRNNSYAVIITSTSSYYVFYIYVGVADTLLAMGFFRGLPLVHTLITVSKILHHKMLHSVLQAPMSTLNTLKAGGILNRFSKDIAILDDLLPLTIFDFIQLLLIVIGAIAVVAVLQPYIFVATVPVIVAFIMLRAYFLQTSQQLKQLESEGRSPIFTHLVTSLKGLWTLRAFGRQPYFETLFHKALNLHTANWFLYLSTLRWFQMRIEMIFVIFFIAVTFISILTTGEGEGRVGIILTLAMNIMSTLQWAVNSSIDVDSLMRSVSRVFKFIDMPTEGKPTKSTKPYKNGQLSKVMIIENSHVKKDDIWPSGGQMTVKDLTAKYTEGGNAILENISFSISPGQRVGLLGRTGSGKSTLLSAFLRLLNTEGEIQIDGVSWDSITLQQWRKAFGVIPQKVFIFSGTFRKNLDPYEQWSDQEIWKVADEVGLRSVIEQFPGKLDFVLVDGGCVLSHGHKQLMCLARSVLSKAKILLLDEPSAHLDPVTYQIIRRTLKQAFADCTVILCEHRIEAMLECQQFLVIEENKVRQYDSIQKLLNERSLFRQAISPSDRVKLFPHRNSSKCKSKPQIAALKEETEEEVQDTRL
Kind of test: CFTR channel function in intestinal epithelial cells (forskolin-induced Isc in Ussing chambers; SPQ iodide efflux). It counts as cell-based. Particulars: VX-770 10 μM, VX-532 20 μM, Genistein 10 μM; Caco-2 or T84 cells. How it is done:
Human colon adenocarcinoma-derived Caco-2 and T84 cells (Barone, M. V. et al. 2014; Luciani, A. et al. 2010) were obtained from the ATCC. Cells were maintained in T25 flask in Modified Eagle Medium (MEM) for Caco-2, or Ham's F12+DMEM (1:1) for T84, supplemented with 10% fetal bovine serum (FBS), 2 mM Glutamine+1% Non Essential Amino Acids (NEAA) and the antibiotics penicillin\streptomycin (100 units/ml) (all reagents from Lonza). Caco-2 cells were grown in Transwells (Corning, 3470 or 3460) under the normal condition. Briefly, 8×10^4 or 5×10^5 cells were seeded in 6.5-mm diameter or 12-mm diameter, respectively, and grown until the RT reached 800 to 1,200 Ω·cm^2. Transwells with a pore size of 0.4 μm were used. Medium in both the apical and baso lateral chambers was changed every other day. Cells were treated with 20 μg/ml of either with the α-gliadin peptide comprising the P31-43 amino acid sequence of α-gliadin LGQQQPFPPQQPY (SEQ ID 1) (below referred to as P31-43), which is known to induce an enterocyte stress response (Meresse, B. et al.2009; Barone, M. V. et al. 2014; Luciani, A. et al. 2010), the T-cell activating α-gliadin peptide comprising the P57-68 amino acid sequence of α-gliadin (QLQPFPQPQLPY SEQ ID 2)) (below referred to as P57-68) (Maiuri, L., et al. 2003; Meresse, B. et al.2009; 30 Barone, M. V. et al. 2014), or the scrambled GAVAAVGVVAGA (SEQ ID 3) control peptide (below referred to as PGAV), or with different modified P31-43, either biotin-tagged or not, for different time points (from 1 h short challenge up to 24 h). Cells were also treated with 50 or 100 5 μg/ml of P57-68 or PGAV peptides for 3 h.
Caco-2 or T84 cells were also treated with: CFTR potentiators VX-770 (Ivacaftor) (10 μM) or VX-532 (20 μM) (Selleck chemicals) or Genistein (10 μM) (Verkman, A. S. et al. 2005; Jih, K. Y. et al. 2013) (Sigma-Aldrich) or in presence or absence of CFTR inhibitor172 (CFTRinh172, 20 μM).
Human colon adenocarcinoma-derived Caco-2 and T84 cells were obtained from the ATCC. Cells were maintained in T25 flask in Modified Eagle Medium (MEM) for Caco-2, or Ham's F12+DMEM (1:1) for T84, supplemented with 10% fetal bovine serum (FBS), 2 mM Glutamine+1% Non Essential Amino Acids (NEAA) and the antibiotics penicillin\streptomycin (100 units/ml) (all reagents from Lonza) (Luciani, A., et al. 2010. Cells were grown in Transwells (Corning, 3470 or 3460) under the normal condition (Luciani, A., et al. 2012). Briefly, 8×10^4 or 5×10^5 cells were seeded in 6.5-mm diameter or 12-mm diameter, respectively, and grown until the RT reached 800 to 1,200 Ω·cm2. Transwells with a pore size of 0.4 μm were used. Medium in both the apical and basolateral chambers was changed every other day. […]
(Passage across Caco-2 layers is used to estimate intestinal permeability.)

For another test, the system named is Caco-2 cells. Kind of test: Endosomal trafficking proteins in Caco-2 cells (immunoblot, endosomal fractions). Type of test: cell-based, human. The settings on record: lost if 3-MA or CFTR inhibitor added. The procedure:
as §1
as §2, with “The beads were then washed three times with lysis buffer and Laemmli's sample buffer was added to the samples. The membranes were then blotted with: CFTR clone CF3 (Abcam, ab2784) 1:1000, TG2 (clone CUB7402; NeoMarkers) 1:1000, CHIP (Calbiochem PC711) 1:500, Ubiquitin (Cell Signaling clone P4D1 3936), isopeptide (Abcam 422) 1:1000, PKAR2 (BD 610625) 1:500.” left out

T1 sequence (P13569 whole entry): as above

Take `Cc1ccc(O)c(-c2cc(-c3ccccc3)[nH]n2)c1` [VX-532, 4-Methyl-2-(5-phenyl-1Hpyrazol-3-yl)-phenol]: on PM-associated CFTR, the “effect on P31-43-induced reduction of PM-associated CFTR” value was “counteracted”. The “prevention of P31-43 induced decrease of CFTR function” value at CFTR is on record as “Prevents P31-43 Induced Inhibition of CFTR Function”. For the same compound, the “effect on P31-43-induced reduction of BECN1, hVps34, UVRAG, Rab5 and Rab7” value in the test on Caco-2 cells is given as “counteracted”.

The values are drawn from patent publication US20200206198A1, “CFTR CHANNEL ACTIVATOR FOR USE IN THE TREATMENT AND/OR PREVENTION OF GLUTEN SENSITIVITY CONDITIONS” (priority 2017, published 2020).
